For data set [1] the following is noted: topical 400 mg. How it is done:
Cnidocysts were isolated from the filament acontia of Aiptasia diaphana based on their high density and high stability in salts as described previously (1, 2) (FIGS. 1A-C). Briefly, filaments were incubated in 1M sodium citrate, followed by two centrifugations in 70% percoll gradients. The isolated cnidocysts were washed with decreasing concentrations of NaCl (1M to 0.2M) and freeze-dried. The purified cnidocysts were kept dry until use, or formulated in an anhydrous gel consisting of 2% hydroxyl propyl cellulose in absolute ethanol.
The study included 3 dosing sessions as detailed in Table 3 below.

For data set [2] the following is noted: oral; cited from earlier work.

Data on two compounds can be found in patent publication US20150250714A1, “PHARMACEUTICAL COMPOSITIONS AND DELIVERY DEVICES COMPRISING STINGING CELLS OR CAPSULES” (NANOCYTE (ISRAEL) LTD., priority 2010, published 2015).

Where two headings read alike, the source gives them in different places.

In the case of `CN1[C@@H]2CC[C@H]1C[C@@H](OC(=O)C(CO)c1ccccc1)C2` (mixture of isomers) [atropine, Atropine], the “Cumulative Value (CV) % of atropine concentrations, Topical” value in data set [1] (Time 0.17) is given as 43.6%; in data set [1] (Time 0.25), 76.9%; in data set [1] (Time 0.5), 42.5%; in data set [1] (Time 0.75), 148.9%; in data set [1] (Time 1), 103.7%; in data set [1] (Time 2), 98.9%. Also, the figures for the “Cumulative Value (CV) % of atropine concentrations, Topical” value in data set [1] (Time 4), in data set [1] (Time 12) and in data set [1] (Time 24) were 113.2%, 96.4% and 144.3%, respectively.

`NCCCC(O)(P(=O)(O)O)P(=O)(O)O` [sodium alendronate]: the “fraction absorbed when taken orally” value in data set [2] is listed as 0.64%.
